From patent US12440433B2, “Brightening cosmetic composition comprising sodium pyruvate as active ingredient” (LG HOUSEHOLD & HEALTH CARE LTD., priority 2020, dated 2025)

Tested on: B16F10 cells
Experiment: Melanogenesis inhibitory efficiency test (melanin amount in α-MSH-stimulated B16F10 cells)
Type: cell-based
Conditions: for Melanin amount (%) / Melanogenesis inhibitory efficiency (symbol): 10 nM α-MSH; for Melanin amount (%) / Melanogenesis inhibitory efficiency / Melanogenesis inhibitory efficiency (symbol): 48 hours; for Melanin amount (%): absorbance at 405 nm, ingredient concentrations (wt %) per Table 1; for Melanogenesis inhibitory efficiency: (Melanin amount upon no treatment − upon treatment)/(upon no treatment) × 100, 10 nM α-MSH; for melanogenesis inhibitory effect (in words): urea or hydroxyethyl urea used alone; for Melanogenesis inhibitory efficiency (symbol): symbol for no effect
Protocol: In order to confirm melanogenesis inhibitory efficacy caused by sodium pyruvate, first, B16F10 cells were dispensed into a 6-well plate at 1×10^5 cells/well and cultured in a DMEM medium containing 10% FBS and 1% penicillin/streptomycin under conditions of 37° C. and 5% CO2 for 24 hours. […] The resulting cells were harvested, added to 100 μl of a lysis buffer (1N NaOH, 10% DMSO), and then allowed to react at 90° C. for 20 minutes, and melanin amounts were measured at 405 nm (EPOCH, Biotek). The melanin amount measurement results are as follows.

SMILES | Melanin amount (%) | Melanogenesis inhibitory efficiency [%] | melanogenesis inhibitory effect (in words) | Melanogenesis inhibitory efficiency (symbol)
CC(=O)C(=O)[O-].[Na+] [Comparative Example 11, sodium pyruvate] | 64 | 36 |  | 
NC(=O)NCCO [compound 2, hydroxyethyl urea] |  |  | a melanogenesis inhibitory effect was not shown | 
NC(=O)NCCO [compound 3, hydroxyethyl urea] | 100 |  |  | *** (100 or more has no effect)
NC(N)=O [compound 4, urea] | 100 |  | a melanogenesis inhibitory effect was not shown | *** (100 or more has no effect)
CC(=O)C(=O)[O-].[Na+] [compound 8, sodium pyruvate] | 92 | 8 |  | 
CC(=O)C(=O)[O-].[Na+] [compound 9, sodium pyruvate] | 82 | 18 |  | 
CC(=O)C(=O)[O-].[Na+] [compound 10, sodium pyruvate] | 77 | 23 |  | 
